US20100227828A1, “NEW SYNERGISTIC PHYTOCHEMICAL COMPOSITION FOR THE TREATMENT OF OBESITY” (LAILA NUTRACEUTICALS, priority 2007, published 2010)

Columns and labels:
5-lipoxygenase = assay: 5-Lipoxygenase inhibitory activity, colorimetric method; assay type: biochemical
Method: The new dietary/pharmaceutical supplement compositions are screened for their 5-lipoxygenase inhibitory potential using colorimetric method. The assay mixture contained 50 mM phosphate buffer (pH 6.3), 5-lipoxygenase, various concentrations of test composition (5 μg, 10 μg, 20 μg) in dimethylsulphoxide and linolenic acid in a total volume of 0.5 mL, after 5 min incubation of above reaction mixture 0.5 mL ferric xylenol orange reagent is added and OD is measured after two minutes at 585 nm using spectrophotometer. Controls are run along with test in a similar manner except using vehicle instead of test substance solution. Percent inhibition is calculated by comparing absorbance of the test solution with that of control.

[1] = Protective effect against diet induced obesity in rats; assay type: in vivo, Sprague-Dawley rats; details: 7 mg/kg oral per day, 8 weeks with high fat diet
Method: Selected healthy Sprague-Dawley rats were randomly assigned to control or various treatment groups (n=6). All the animals allocated for protective phase of the study were on dietary intervention by feeding high fat diet ad libitum and the animals allocated to treatment groups were simultaneously given oral administration of 250 mg/kg of composition-1 or 7 mg/kg sibutramine per day in […] of 0.5% CMC, using gastric tube for the entire 8 week study duration. The test animals of the control group were simultaneously given 10 ml/kg of 0.5% CMC. Food and water consumption were recorded daily, body weights were recorded weekly and fasting blood samples were collected before initiation, after 4th week and 8th week (termination) of the study.

Structure (SMILES)	% of inhibition (5-Lipoxygenase) (5-lipoxygenase; 5 μg)	% of inhibition (5-Lipoxygenase) (5-lipoxygenase; 10 μg)	reduction in weight gain [1]
C[C@H](Cc1ccc(O)c(O)c1)[C@@H](C)Cc1ccc(O)c(O)c1 [NDGA, Nordihydroguiaretic acid]	50.2%	77.35%	–
CC(C)CC(N(C)C)C1(c2ccc(Cl)cc2)CCC1 (stereo not drawn) [sibutramine]	–	–	28.2%
